Read-outs that look alike come from different tables or passages of the source.
Tests used:
HBV = experiment: In-vitro anti-HBV activity in stable HBV-producing cell line (HepG2.2.15), HBV DNA by qPCR; assay type: cell-based; conditions: Hepatitis B virus, 168 h; HepG2.2.15 cells, HBV DNA in culture fluid, day 7, top concentration 16.4 μM
Method: HBV DNA contents in cell culture fluid were detected by the qPCR-based assay and 50% effective concentration (EC50) values of the compounds against HBV were calculated. Specific procedures are as follows:
HepG2.2.15 cells were seeded into each well of 96-well plates, 40,000 cells per well. Cells were treated with cell culture medium containing compounds with different concentrations for 24 hours after cell seeding. The final concentration of each compound was 16.4 μM in each well and each compound was diluted to desired concentration using 3-fold gradient dilution protocol, 9 diluted points in duplicate. The culture mediums containing the compounds were refreshed on day 4 post cell seeding. Culture media were collected from the HepG2.2.15 plates on day 7 post cell seeding followed by HBV DNA extraction.
HBV DNA extraction: The HBV DNA extraction was performed using QIAamp 96 DNA Blood Kit (QIAGEN 51161).
PCR for quantification: PCR mix was prepared according to PCR system. PCR mix was dispensed to 96-well optical reaction plates (special for quantification). The standard diluted proportionally was added. Then the sample was added; The plates were sealed with optical adhesive film; PCR system was performed according to programs.
Percentage of HBV inhibition of DNA replication by compound was calculated using the following equation: % Inh.=[1-HBV DNA quantity of sample/HBV DNA quantity of DMSO control]×100.
Calculating EC50 value of compounds to HBV replication: the EC50 values were calculated based on “four-parameter logistic equation” and using GraphPad Prism 5 analysis software.

[1] = PK of test compounds in beagle; assay type: in vivo, beagle dog; conditions: for Cmax / Tmax / clearance / half-life / AUC(0-inf) / AUC(0-t) / Vd: dog, plasma; for AUC(0-inf): AUC in 0 hour to infinite time; for Vd: read-out: Vss; for F: absolute bioavailability
Method: The test compounds were administrated to beagle dog by gavage in dose of 2.5 mg/kg or 5 mg/kg, or by intravenous injection in dose of 1 mg/kg or 2 mg/kg. Blood sample was collected at 0.083, 0.25, 0.5, 1, 2, 4, 6, 8 and 24 hours from vein after administration into anticoagulation tubes with EDTA-K2. The test compounds were extracted from plasma samples and chromatographed on a tandem mass spectrometer. Quantitation was performed using multiple reaction monitoring (MRM). Pharmacokinetic parameters were calculated using WinNonlin 6.3 software with non compartment model.

[2] = Stability in liver microsome, monkey; assay type: in vitro ADME; conditions: liver microsomes; monkey liver microsome 0.1 mg/mL, compound 1 μM, NADPH 2 mM
Method: (§1) Then two parallel samples were prepared. After a 10 minutes preincubation at 37° C., 15 μL of NADPH solution (8 mM) was added according to the point-in-time. The final concentration of the text compound was 1 μM, the concentration of liver microsome was 0.1 mg/mL, the final concentration of NADPH was 2 mM. The incubations were last for 0, 15, 30, 60 min respectively, and then 150 μL of acetonitrile (include interior label) was added to the mixture system. After dilution with acetonitrile, the samples were centrifuged for 5 minutes in 4000 rpm. The supernatant liquid was collected for LC-MS/MS analysis.

[3] = Stability in liver microsome, mouse; assay type: in vitro ADME; conditions: liver microsomes; mouse liver microsome 0.1 mg/mL, compound 1 μM, NADPH 2 mM
Method: as §1

[4] = Stability in liver microsome, dog; assay type: in vitro ADME; conditions: liver microsomes; dog liver microsome 0.1 mg/mL, compound 1 μM, NADPH 2 mM
Method: as §1

[5] = Stability in liver microsome, human; assay type: in vitro ADME; conditions: liver microsomes; human liver microsome 0.1 mg/mL, compound 1 μM, NADPH 2 mM
Method: as §1

[6] = iv, 1 mg/kg, iv, 1 mg/kg, AUC in 0-24 hours, read-out: AUClast
[7] = po, 2.5 mg/kg, po, 2.5 mg/kg value multiplied by 2, read-out: AUClast ×2 (calculated by dosage)
[8] = po, 2.5 mg/kg, po, 2.5 mg/kg, AUC in 0-24 hours, read-out: AUClast

SMILES	EC50 (HBV)	Cmax ([1]; iv, 1 mg/kg)	Tmax ([1]; iv, 1 mg/kg)	clearance ([1]; iv, 1 mg/kg)	half-life ([1]; iv, 1 mg/kg)	AUC(0-inf) ([1]; iv, 1 mg/kg)	AUC(0-t) [1, 6]	Vd ([1]; iv, 1 mg/kg)	Cmax ([1]; po, 2.5 mg/kg)	Tmax ([1]; po, 2.5 mg/kg)	half-life ([1]; po, 2.5 mg/kg)	AUC(0-inf) ([1]; po, 2.5 mg/kg)	AUC(0-t) [1, 7]	AUC(0-t) [1, 8]	F ([1]; po, 2.5 mg/kg)	CLint scaled at 1 μM [2]	half-life at 1 μM [2]	CLint scaled at 1 μM [3]	half-life at 1 μM [3]	CLint scaled at 1 μM [4]	also measured
COC(=O)C1=C(CN2CCO[C@H](CCC(=O)O)C2)NC(c2nccs2)=N[C@H]1c1ccc(F)cc1Br [Example 11, 3-((R)-4-(((R)-6-(2-Bromo-4-fluorophenyl)-5-(methoxycarbonyl)-2-(thiazol-2-yl)-3,6-dihydropyrimidin-4-yl)methyl)morpholin-2-yl)propanoic acid]	35 nM	3400 ng/mL	0.139 h	1.59 mL/min/kg	4.99 h	10900 ng·h/mL	10500 ng·h/mL	0.545 L/kg	4310 ng/mL	0.75 h	4.92 h	24400 ng·h/mL	47400 ng·h/mL	23700 ng·h/mL	89.66%	14.4 mL/min/kg	2.34 h	86.3 mL/min/kg	1.05 h	10.1 mL/min/kg	half-life at 1 μM [4]: 5.72 h; CLint scaled at 1 μM [5]: 6.93 mL/min/kg; half-life at 1 μM [5]: 4.18 h
CCOC(=O)C1=C(CN2CCO[C@H](CCC(=O)O)C2)NC(c2nccs2)=N[C@H]1c1ccc(Cl)cc1Cl [Example 12, 3-((R)-4-(((R)-6-(2,4-dichlorophenyl)-5-(ethoxycarbonyl)-2-(thiazol-2-yl)-3,6-dihydropyrimidin-4-yl)methyl)morpholin-2-yl)propanoic acid]	26 nM	2230 ng/mL	0.083 h	2.12 mL/min/kg	6.2 h	7970 ng·h/mL	7570 ng·h/mL	0.832 L/kg	2660 ng/mL	0.5 h	9.07 h	16800 ng·h/mL	30000 ng·h/mL	15000 ng·h/mL	84.48%	122 mL/min/kg	0.277 h	604 mL/min/kg	0.15 h	17.5 mL/min/kg	half-life at 1 μM [4]: 3.28 h; CLint scaled at 1 μM [5]: 18.6 mL/min/kg; half-life at 1 μM [5]: 1.56 h
COC(=O)C1=C(CN2CCO[C@H](CCC(=O)O)C2)NC(c2nccs2)=N[C@H]1c1ccc(Cl)cc1Cl [Example 13, 3-((R)-4-(((R)-6-(2,4-dichlorophenyl)-5-(methoxycarbonyl)-2-(thiazol-2-yl)-3,6-dihydropyrimidin-4-yl)methyl)morpholin-2-yl)propanoic acid]	28 nM	2920 ng/mL	0.083 h	1.49 mL/min/kg	5.08 h	11600 ng·h/mL	11200 ng·h/mL	0.526 L/kg	6410 ng/mL	0.667 h	5.29 h	33300 ng·h/mL	64400 ng·h/mL	32200 ng·h/mL	105.6%	36 mL/min/kg	0.94 h	135 mL/min/kg	0.673 h	5.51 mL/min/kg	half-life at 1 μM [4]: 10.5 h; CLint scaled at 1 μM [5]: 17.2 mL/min/kg; half-life at 1 μM [5]: 1.68 h
